In the assay the test system is AS mice (Ube3am−/p+ KO mice) with LTP deficits. Kind of assay: LTP deficits in cognitively deficient (AS) mice; fEPSP recording in hippocampal slices after oral treatment. It counts as in vivo. As to the method: For all behavioral and electrophysiology experiments female Ube3am−/p+ KO mice (i.e., AS mice) were crossed with wild-type males, to generate heterozygous AS mice and littermate controls in the F1 hybrid 12952-057BL/6 background. The AS mice have cognitive deficits, including long term potentiation (LTP) deficits.
Control mice (“wt”) were treated with vehicle while AS mice were treated with vehicle or MK-8998 (“CX”) at 30 mg/kg or at 60 mg/kg dose given orally twice per day in the morning and afternoon. Dosing was carried out for one week before testing, then behavioral tests were carried out on the animals over a 5-week period.
After the behavioural tests, animals remained under treatment until the animals were sacrificed one hour after the last drug administration. […] LTP was evoked using the 10 Theta burst protocol (10 trains of 4 stimuli at 100 Hz, 200 ms apart), performed at two-third of the maximum fEPSP. fEPSP sizes were recorded once per minute. Potentiation was measured as the normalized increase of the mean fEPSP slope for the duration of the baseline. […] Final LTP was determined over the last 10 min of the recording. […]
LTP was evoked using the 10 Theta burst protocol (10 trains of 4 stimuli at 100 Hz, 200 ms apart), performed at two-third of the maximum fEPSP. Final LTP was determined over the last 10 min of the recording. […]

Turning to `CC(C)c1ccc(CC(=O)N[C@H](C)c2ccc(OCC(F)(F)F)cn2)cc1` [MK-8998], the “P, post hoc Bonferroni multiple comparisons, AS Vehicle vs treated (LTP)” value was found to be 0.01 (30 mg/kg) and 0.02 (60 mg/kg).

For the origin of these results see patent publication US11324733B2, “Methods for improving memory and cognition and for treating memory and cognitive disorders” (Cavion, Inc., priority 2017, dated 2022).
